Consider 1 substance from patent US20030129193A1 (priority 2001, published 2003).

Series [1] deals with C1300 Muγ mouse neuroblastoma. The series is described as follows: In vivo tumor thrombosis and anti-tumor effects, C1300 (Muγ). Also on record: species or system BALB/c nu/nu mice.
For series [2], the system named is H460 human non-small cell lung carcinoma. Put plainly: Anti-tumor effects, H460. Type of series: in vivo, nu/nu mice. As for the experimental part:
The tumor test systems were: i) L540 human Hodgkin's disease tumors growing in SCID mice; ii) C1300 Muγ (interferon-secreting) neuroblastoma growing in nu/nu mice; iii) H460 human non-small cell lung carcinoma growing in nu/nu mice. To establish solid tumors, 1.5×10^7 tumor cells were injected subcutaneously into the right anterior flank of SCID or BALB/c nu/nu mice (Charles River Labs., Wilmingham, Mass.). When the tumors had grown to various diameters mice were assigned to different experimental groups, each containing 4 to 9 mice.
Other mice received equivalent quantities of bispecific antibody alone. The injections were performed over ˜45 seconds into one of the tail veins, followed by 200 μl of saline. The infusions were repeated six days later. Perpendicular tumor diameters were measured at regular intervals and tumor volumes were calculated.

In series [3] the test system is HT29 human colorectal carcinoma. Put plainly: Anti-tumor effects and tumor necrosis, HT29. The series is classed as in vivo, BALB/c nu/nu mice.
Series [4] has as its system citrated mouse or human plasma. The series is described as follows: In vitro coagulation assay on A20 cells. Type of series: cell-based.
The test system of series [5] is L540rec human Hodgkin's lymphoma tumors. Put plainly: Treatment studies, L540 Hodgkin's tumor necrosis. The series is classed as in vivo, SCID mice. The protocol: For in vivo studies, a metastasizing mouse model for human Hodgkin's lymphoma was used. 1×10^7 L540rec cells were injected subcutaneously into the right flank of SCID mice resulting in a subcutaneous tumor with lymph node metastases in the regional lymph node stations. Subcutanous tumors were measured with a caliper in three perpendicular directions a, b, and c, and volumes calculated according to the formula V=π/6×a×b×c.
Treatment was initiated when subcutaneous tumors reached a size of 150 to 300 μl. Reagents were administered into the lateral tail vein.
Mice were closely observed after treatment for clinical signs of toxicity and clinical status was documented at defined time points (5 minutes, 10 minutes, 15 minutes, 30 minutes, 1 hour, 2 hours, 24 hours, 48 hours, 72 hours). Blood samples were taken from the tail vein at 1 hour, 2 hours and 24 hours to measure TNFα blood levels. […]
Tissue samples harvested at the time of autopsy were fixed in 3% NBF (normal buffered formalin) and embedded in paraffin wax. […] Tissue sections were analyzed on a light microscope by two independent investigators and histological findings were documented. Tumor sections with necrotic areas were scanned with a GS-700 imaging densitometer (Biorad, Hercules, Calif.) and areas of necrosis were calculated as % of total section area. […]

Series [6] has as its system thrombin-antithrombin-complexes (TAT). The series is described as follows: Assessment of coagulation parameters: TAT. The series is classed as in vivo, mice. The following applies: plasma, three days after i.v. treatment, tTF alone. The protocol:
At the time of autopsy, citrated blood was sampled from the vena cava and thrombocyte-free plasma was prepared by centrifugation. The plasma was stored at −80° C. until further analysis. Thrombin-Antithrombin-complexes were detected with the Enzygnost® TAT micro-assay (Dade-Behring, Marburg, Germany) according to the manufacturer's instructions. ATIII levels were determined using the Coamatic® antithrombin-assay (Haemochrom, Essen, Germany) following the manufacturer's instructions. Changes in the blood levels of thrombin and plasmin were detected by mixing citrated plasma with the respective chromogenic substrates S2238 and S2403 (Haemochrom, Essen, Germany) and measuring the increase of the absorption at 405 nm by an ELISA reader.

For the next series, the system named is TNFα. The series is described as follows: TNFα serum levels in treated animals. Type of series: in vivo, mice. The following applies: tTF containing no endotoxin (n=6), any time point. As for the experimental part: Mice were closely observed after treatment for clinical signs of toxicity and clinical status was documented at defined time points (5 minutes, 10 minutes, 15 minutes, 30 minutes, 1 hour, 2 hours, 24 hours, 48 hours, 72 hours). Blood samples were taken from the tail vein at 1 hour, 2 hours and 24 hours to measure TNFα blood levels. Three days after treatment, the mice were anesthetized, blood samples were taken from the vena cava for coagulation tests, and an autopsy was performed to document any changes in gross pathology. Tumors, lymph node metastases and the major normal organs (heart, lung, brain, liver, kidney, colon, spleen, pancreas) were harvested and prepared for histological analysis.
TNFα levels in serum were determined using the Quantikine-M kit (R&D Systems, Minneapolis, Minn.) according to the manufacturer's instructions.

In series [7] the test system is factor X. Put plainly: Cell free two-stage coagulation assay. The series is classed as biochemical. The following applies: Factor Xa generation, absorption at 405 nm. As for the experimental part:
In vitro coagulation activity was tested in a cell free two-stage coagulation assay. Negatively charged phospholipids at a final concentration of 50 μM (phosphatidylserine and phosphatidylcholine from Sigma, Taufkirchen, Germany) in calcium buffer (50 mM Tris pH=8.1, 150 mM NaCl, 2 mg/ml BSA, 5 mM Ca^++) were mixed with Factor VIIa (Sigma, Taufkirchen, Germany) at 10 nM and with samples or controls and incubated for five min at 37° C. Factor X was added to a final concentration of 30 nM and samples were incubated for 5 min at room temperature. Finally, the chromogenic substrate S2765 (Haemochrom, Essen, Germany) was added in a 100 mM EDTA solution. Factor Xa generation as a measure of Tissue Factor activity was determined by the increase in the absorption at 405 nm.
Negatively charged phospholipids at a final concentration of 50 μM (phosphatidylserine and phosphatidylcholine from Sigma, St. Louis, Mo.) in calcium buffer (50 mM Tris pH=8.1, 150 mM NaCl, 2 mg/ml BSA, 5 mM Ca^++) were mixed with Factor VIIa (Sigma. St. Louis, Mo.) at 10 nM and with samples or controls and incubated for five minutes at 37° C. Factor X (Sigma, St. Louis, Mo.) was added to a final concentration of 30 nM and samples were incubated for 5 minutes at room temperature. […] Factor Xa generation as a measure of tissue factor activity was determined by the increase in the absorption at 405 nm.

The target in the next series is T1, immobilized tTF (Homo sapiens, UniProt P13726).
T1 construct: the extracellular domain of the mature Tissue Factor protein (amino acid 1-219 of the mature protein; inferred from Ni-NTA purification); made in house; host or cells: E. coli (periplasmic secretion, vector pswc7)
The series is described as follows: Real time binding study (surface plasmon resonance). The following applies: alone or preincubated with endotoxin or factor VIIa. Background: Surface plasmon resonance follows binding to a sensor surface in real time, without labels.

In series [8] the test system is factor X. The following applies: appropriate phospholipid membrane environment; cited from earlier work.

T1 sequence (P13726 33-251): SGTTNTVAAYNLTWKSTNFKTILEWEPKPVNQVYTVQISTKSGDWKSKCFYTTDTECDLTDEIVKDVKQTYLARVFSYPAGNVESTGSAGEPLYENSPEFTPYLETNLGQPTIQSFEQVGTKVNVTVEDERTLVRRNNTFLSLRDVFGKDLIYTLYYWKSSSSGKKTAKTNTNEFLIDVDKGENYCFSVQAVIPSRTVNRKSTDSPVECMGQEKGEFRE

With “tTF: extracellular domain of the mature Tissue Factor protein (amino acid 1-219)”, the “thrombosis of tumor vessels” value in series [1] (24 hours after injection) is listed as “practically all vessels in all regions of the tumor were thrombosed”. Moreover, the “effect on vessels in small tumors” value in series [1] (small (<500 mm^3) C1300 and C1300 Muγ) is listed as “largely unaffected”. Further, the tumor growth entry in series [1] (tTF alone or mixed with control bispecific antibodies vs antibodies or saline alone) is given as “grew significantly more slowly”. The “effect on growth rate” value in series [2] (first treatment, small (250 mm^3) tumors) was “little effect on growth rate”. Besides, the “tumor volume after regression” value in series [2] (second treatment given at 900 mm^3) is recorded as 550 mm^3. Besides, the “growth discontinued after treatment” value in series [3] (large (1200 mm^3) tumors, i.v.) was “about 7 days”. Moreover, in series [3] (small HT29 tumors, single agents, 24 hours), the “necrosis in tumor sections” value is “some necrosis”. Further, the plasma coagulation time in [4] (10^−10 M tTF219, absence of Factor VIIa) was determined as 60 s; in series [4] (10^−10 M tTF219, presence of 13.5 nM Factor VIIa), 20 s. Also, the coagulation time was determined as 140 s in series [4] (20,000 molecules per cell) and 40 s in series [4] (300,000 molecules of tTF per cell). The “concentration at which plasma coagulated in 50 seconds” value in series [4] (localized on A20 cells via B21-2/10H10) turned out to be 3 nM. In series [4] (presence of 0.1 nM Factor VIIa), the “increase in coagulation-inducing potency” value is given as 2-5 fold. Besides, in series [4] (tTF bound to A20 cells by B21-2/10H10, mouse plasma), the “time until fibrin strands visible after addition of plasma” value worked out at 36 s. The same substance returned a tumor tissue necrosis in [5] (4 μg or 16 μg endotoxin-free tTF alone) of 0%. Further, the “% tumor necrosis” value in series [5] (Table 2, tTF alone) worked out at 4%. Moreover, the TAT in series [6] stood at 25.4 ng/mL. The TNFα serum level entry with TNFα was “could not be detected”. In addition, in the series on factor X [7], the “coagulation activities before and after endotoxin removal” value is “the same”. Besides, the “binding to immobilized tTF” value in the series with immobilized tTF is “did not bind to or homodimerize with immobilized tTF”. In the series with factor X [8], the “factor X-activating activity, times less than native transmembrane TF” value is “approximately 10^5 times”.
